Experiment [1] addresses T1, CDK2/Cyclin E1 (Homo sapiens, UniProt P24941). Description: CDK2/Cyclin E1 TR-FRET biochemical assay, 0.060 mM ATP. The following applies: 0.15 μM Rb (Ser780)-biotin substrate, 120 min reaction, Table 1. The procedure:
(§1) Compounds disclosed herein were tested for inhibition of CDK2/Cyclin E1 or CDK1/Cyclin B1 kinase in an assay based on the time-resolved fluorescence-resonance energy transfer (TR-FRET) methodology. The assay was carried out in 384-well low volume black plates in a reaction mixture containing CDK2/Cyclin E1 or CDK1/Cyclin B1, 0.060 mM ATP for CDK2/Cyclin E1 or 0.015 mM ATP for CDK1/Cyclin B1, 0.15 μM Rb (Ser780)-biotin substrate and 0-10 μM compound in buffer containing 50 mM HEPES pH7.0, 0.02% NaN3, 0.01% BSA, 0.1 mM Orthovanadate, 50 mM MgCl2, 1 mM DTT and 0.005% Tween-20. The kinase was incubated with compound for 60 minutes at room temperature and the reaction was initiated by the addition of ATP and Rb (Ser780)-biotin substrate. After reaction at room temperature for 120 minutes, an equal volume of stop/detection solution was added according to the manufacture's instruction (Cisbio Bioassays). The stop/detection solution contained Streptavidin-XL665 and Anti-pRb (Ser780) mAb-Eu Cryptate in Detection buffer (Cisbio Bioassays). Plates were incubated at room temperature for 60 minutes, and the TR-FRET signals (ex337 nm, em665 nm/620 nm) were recorded on a PHERAstar FSX plate reader (BMG Labtech). The inhibition percentage of CDK2/Cyclin E1 or CDK1/Cyclin B1 kinase activity in presence of increasing concentrations of compounds was calculated based on the ratio of fluorescence at 665 nm to that at 620 nm. The IC50 for each compound was derived from fitting the data to the four-parameter logistic equation by Dotmatics.
Background: TR-FRET usually uses a lanthanide donor and a delayed reading to cut background.

In experiment [2] the target is T2, CDK1/Cyclin B1 (Homo sapiens, UniProt P06493). Description: CDK1/Cyclin B1 TR-FRET biochemical assay, 0.015 mM ATP. The following applies: 0.15 μM Rb (Ser780)-biotin substrate, 120 min reaction, Table 1. The procedure: as §1
The target of experiment [3] is T2, CDK1/Cyclin B1. The experiment can be described thus: CDK1/Cyclin B1 TR-FRET biochemical assay, 1 mM ATP. The settings on record: 0.15 μM Rb (Ser780)-biotin substrate, 90 min reaction, Table 2.
The target of experiment [4] is T1, CDK2/Cyclin E1. The experiment can be described thus: CDK2/Cyclin E1 TR-FRET biochemical assay, 1 mM ATP. The settings on record: 0.15 μM Rb (Ser780)-biotin substrate, 90 min reaction, Table 2.

T2 sequence (P06493 whole entry): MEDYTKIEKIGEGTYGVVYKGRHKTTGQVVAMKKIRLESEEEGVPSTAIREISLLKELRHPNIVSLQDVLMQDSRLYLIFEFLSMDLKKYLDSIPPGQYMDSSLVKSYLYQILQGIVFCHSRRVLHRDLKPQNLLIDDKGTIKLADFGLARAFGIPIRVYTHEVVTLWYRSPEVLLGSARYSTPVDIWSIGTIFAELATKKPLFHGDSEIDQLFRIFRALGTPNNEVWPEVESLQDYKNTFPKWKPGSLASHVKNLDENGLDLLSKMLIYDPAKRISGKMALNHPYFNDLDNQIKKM
T2 sequence (P14635 whole entry partner): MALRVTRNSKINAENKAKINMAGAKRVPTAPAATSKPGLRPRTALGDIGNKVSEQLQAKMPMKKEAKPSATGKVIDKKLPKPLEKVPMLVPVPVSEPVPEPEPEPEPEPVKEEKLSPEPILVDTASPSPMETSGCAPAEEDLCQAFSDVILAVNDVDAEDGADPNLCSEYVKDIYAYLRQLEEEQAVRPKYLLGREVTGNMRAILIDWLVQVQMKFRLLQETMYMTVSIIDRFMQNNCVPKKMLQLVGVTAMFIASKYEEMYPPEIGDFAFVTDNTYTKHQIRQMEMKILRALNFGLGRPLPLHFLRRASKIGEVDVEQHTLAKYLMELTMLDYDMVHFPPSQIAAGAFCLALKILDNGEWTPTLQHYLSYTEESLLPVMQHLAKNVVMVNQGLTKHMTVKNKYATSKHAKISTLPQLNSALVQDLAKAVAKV

With `CC(C)(C)c1cnc([C@@H]2CC[C@H](c3cc(Nc4ccc5c(c4F)CS(=O)(=O)N5)n[nH]3)C2)o1` (relative stereo) [Example 145, cis-5-((5-(3-(5-(tert-butyl)oxazol-2-yl)cyclopentyl)-1H-pyrazol-3-yl)amino)-4-fluoro-1,3-dihydrobenzo[c]isothiazole 2,2-dioxide], the IC50 (commonly the concentration at which inhibition is half-maximal) in experiment [1] came to 3.3 nM; in experiment [2], 11 nM.

For the molecule `O=S1(=O)NCc2c1ccc(Nc1cc([C@H]3CC[C@@H](Oc4cccnn4)C3)[nH]n1)c2F` (relative stereo) [Example 22, cis-4-fluoro-5-((5-(3-(pyridazin-3-yloxy)cyclopentyl)-1H-pyrazol-3-yl)amino)-2,3-dihydrobenzo[d]isothiazole 1,1-dioxide], the IC50 in experiment [1] was determined as 43 nM; in experiment [2] it was 239 nM.

For the molecule `CCc1ccnnc1O[C@@H]1CC[C@H](c2cc(Nc3ccc4c(c3F)CNS4(=O)=O)n[nH]2)C1` (relative stereo) [Example 25, cis-5-((5-(3-((4-ethylpyridazin-3-yl)oxy)cyclopentyl)-1H-pyrazol-3-yl)amino)-4-fluoro-2,3-dihydrobenzo[d]isothiazole 1,1-dioxide], the IC50 came out at 1.4 nM in experiment [1] and 11 nM in experiment [2].

Consider `O=c1c(C2CC2)csn1[C@H]1CC[C@@H](c2cc(Nc3ccc4c(c3F)CNS4(=O)=O)n[nH]2)C1` (relative stereo) [Example 54, cis-4-cyclopropyl-2-(3-(3-((4-fluoro-1,1-dioxido-2,3-dihydrobenzo[d]isothiazol-5-yl)amino)-1H-pyrazol-5-yl)cyclopentyl)isothiazol-3 (2H)-one], for which the IC50 turned out to be 49 nM in experiment [1] and 418 nM in experiment [2].

As to `Cc1cc(O[C@@H]2CC[C@H](c3cc(Nc4ccc5c(c4F)CNS5(=O)=O)n[nH]3)C2)[nH]n1` (relative stereo) [Example 65, cis-4-fluoro-5-((5-(3-((3-methyl-1H-pyrazol-5-yl)oxy)cyclopentyl)-1H-pyrazol-3-yl)amino)-2,3-dihydrobenzo[d]isothiazole 1,1-dioxide], the IC50 in experiment [1] came out at 70 nM; in experiment [2], 1360 nM.

On to `Cc1ccnn([C@H]2CC[C@@H](c3cc(Nc4ccc5c(c4F)CNS5(=O)=O)n[nH]3)C2)c1=O` (relative stereo) [Example 23, cis-2-(3-(3-((4-fluoro-1,1-dioxido-2,3-dihydrobenzo[d]isothiazol-5-yl)amino)-1H-pyrazol-5-yl)cyclopentyl)-4-methylpyridazin-3 (2H)-one], for which the IC50 turned out to be 132 nM in experiment [1] and 526 nM in experiment [2].

On to `O=c1ccsn1[C@H]1CC[C@@H](c2cc(Nc3ccc4c(c3F)CNS4(=O)=O)n[nH]2)C1` (relative stereo) [Example 51, cis-2-(3-(3-((4-fluoro-1,1-dioxido-2,3-dihydrobenzo[d]isothiazol-5-yl)amino)-1H-pyrazol-5-yl)cyclopentyl)isothiazol-3 (2H)-one], for which the IC50 turned out to be 214 nM in experiment [1] and 1770 nM in experiment [2].

`Cc1ncccc1O[C@@H]1CC[C@H](c2cc(Nc3ccc4c(c3F)CNS4(=O)=O)n[nH]2)C1` (relative stereo) [Example 40, cis-4-fluoro-5-((5-(3-((2-methylpyridin-3-yl)oxy)cyclopentyl)-1H-pyrazol-3-yl)amino)-2,3-dihydrobenzo[d]isothiazole 1,1-dioxide]: the IC50 stood at 19 nM in experiment [1] and 552 nM in experiment [2].

Turning to `O=S1(=O)NCc2c1ccc(Nc1cc([C@H]3CC[C@@H](Oc4ccccn4)C3)[nH]n1)c2F` (relative stereo) [Example 46, cis-4-fluoro-5-((5-(3-(pyridin-2-yloxy)cyclopentyl)-1H-pyrazol-3-yl)amino)-2,3-dihydrobenzo[d]isothiazole 1,1-dioxide], the figures for the IC50 in experiment [1] and in experiment [2] were 419 nM and 7450 nM, respectively.

For the molecule `C=C(C)c1cnn([C@H]2CC[C@@H](c3cc(Nc4ccc5c(c4F)CNS5(=O)=O)n[nH]3)C2)c(=O)c1` (relative stereo) [Example 32, cis-2-(3-(3-((4-fluoro-1,1-dioxido-2,3-dihydrobenzo[d]isothiazol-5-yl)amino)-1H-pyrazol-5-yl)cyclopentyl)-5-(prop-1-en-2-yl)pyridazin-3 (2H)-one], the IC50 was determined as 48 nM in experiment [1] and 3570 nM in experiment [2].

In the case of `CC(C)(C)c1cnc(C2CCC(c3cc(Nc4ccc5c(c4)CN=S5(C)=O)n[nH]3)C2)o1` (single isomer, unassigned) [Example 169d, 5-((5-(3-(5-(tert-butyl)oxazol-2-yl)cyclopentyl)-1H-pyrazol-3-yl)amino)-1-methyl-3H-1λ^4-benzo[d]isothiazole 1-oxide], the IC50 in experiment [3] was over 10000 nM; in experiment [4], 173 nM.

With `CC(C)(C)c1cnc(C2CCC(c3cc(Nc4ccc(S(N)(=O)=O)cc4F)n[nH]3)C2)o1` (single isomer, unassigned) [Example 6c, 4-((5-(3-(5-(tert-butyl)oxazol-2-yl)cyclopentyl)-1H-pyrazol-3-yl)amino)-3-fluorobenzenesulfonamide], the values for the IC50 in experiment [3] and in experiment [4] were over 10000 nM and 1910 nM, respectively.

With `O=S1(=O)NCc2c1ccc(Nc1cc(C3CCC(c4ncc(C5CC5)o4)C3)[nH]n1)c2F` (stereo not drawn) [Example 116, 5-((5-(3-(5-cyclopropyloxazol-2-yl)cyclopentyl)-1H-pyrazol-3-yl)amino)-4-fluoro-2,3-dihydrobenzo[d]isothiazole 1,1-dioxide], the IC50 in experiment [3] was over 10000 nM; in experiment [4], 98 nM.

Turning to `CC(C)(C)c1ccnnc1O[C@H]1CC[C@H](c2cc(Nc3ccc4c(c3F)CNS4(=O)=O)n[nH]2)C1` (relative stereo) [Example 36, trans-5-((5-(3-((4-(tert-butyl)pyridazin-3-yl)oxy)cyclopentyl)-1H-pyrazol-3-yl)amino)-4-fluoro-2,3-dihydrobenzo[d]isothiazole 1,1-dioxide], the IC50 in experiment [3] and in experiment [4] was over 10000 nM each time.

On to `Cc1cc(C(C)(C)C)cc(C2CCC(c3cc(Nc4ccc5c(c4F)CNS5(=O)=O)n[nH]3)C2)n1` (stereo not drawn) [Example 123, 5-((5-(3-(4-(tert-butyl)-6-methylpyridin-2-yl)cyclopentyl)-1H-pyrazol-3-yl)amino)-4-fluoro-2,3-dihydrobenzo[d]isothiazole 1,1-dioxide], for which the IC50 in experiment [3] was over 10000 nM; in experiment [4], 1740 nM.

In the case of `CC(C)(C)c1ccnc([C@@H]2CC[C@H](c3cc(Nc4ccc5c(c4F)CNS5(=O)=O)n[nH]3)C2)n1` (relative stereo) [Example 127, cis-5-((5-(3-(4-(tert-butyl)pyrimidin-2-yl)cyclopentyl)-1H-pyrazol-3-yl)amino)-4-fluoro-2,3-dihydrobenzo[d]isothiazole 1,1-dioxide], the IC50 in experiment [3] was determined as 142 nM; in experiment [4] it was 1.5 nM.

As for `Cc1cccc(C2CCC(c3cc(Nc4cc5c(cc4F)S(=O)(=O)NC5)n[nH]3)C2)n1` (stereo not drawn) [Example 12, 6-fluoro-5-((5-(3-(6-methylpyridin-2-yl)cyclopentyl)-1H-pyrazol-3-yl)amino)-2,3-dihydrobenzo[d]isothiazole 1,1-dioxide], the values for the IC50 in experiment [3] and in experiment [4] were over 10000 nM and 3990 nM, respectively.

Consider `Cc1nc(C2CCC(c3cc(Nc4ccc(S(N)(=O)=O)cc4F)n[nH]3)C2)oc1C(C)(C)C` (stereo not drawn) [Example 8, 4-((5-(3-(5-(tert-butyl)-4-methyloxazol-2-yl)cyclopentyl)-1H-pyrazol-3-yl)amino)-3-fluorobenzenesulfonamide], for which the IC50 in experiment [3] was over 10000 nM; in experiment [4], 79 nM.

With `Cc1cc(C(C)(C)C)cc(C2CCC(c3cc(Nc4ccc5c(c4F)CS(=O)(=O)N5)n[nH]3)C2)n1` (stereo not drawn) [Example 164, 5-((5-(3-(4-(tert-butyl)-6-methylpyridin-2-yl)cyclopentyl)-1H-pyrazol-3-yl)amino)-4-fluoro-1,3-dihydrobenzo[c]isothiazole 2,2-dioxide], the IC50 in experiment [3] is over 10000 nM; in experiment [4], 285 nM.

On to `CC(C)(O)Cn1cc(C2CCC(c3cc(Nc4ccc5c(c4F)CNS5(=O)=O)n[nH]3)C2)cn1` (stereo not drawn) [Example 102, 4-fluoro-5-((5-(3-(1-(2-hydroxy-2-methylpropyl)-1H-pyrazol-4-yl)cyclopentyl)-1H-pyrazol-3-yl)amino)-2,3-dihydrobenzo[d]isothiazole 1,1-dioxide], for which the IC50 was over 10000 nM in experiment [3] and 813 nM in experiment [4].

With `CC(C)(C)c1ccc(C2CCC(c3cc(Nc4ccc5c(c4F)CS(=O)(=O)N5)n[nH]3)C2)o1` (stereo not drawn) [Example 153, 5-((5-(3-(5-(tert-butyl)furan-2-yl)cyclopentyl)-1H-pyrazol-3-yl)amino)-4-fluoro-1,3-dihydrobenzo[c]isothiazole 2,2-dioxide], the IC50 in experiment [3] is over 10000 nM; in experiment [4], 1020 nM.

For the origin of these results see patent US20260200897A1, “4-((5-(3-(4-(PYRIDIN-2-YL)CYCLOPENTYL)-1H-PYRAZOL-3-YL)AMINO)-BENZENESULFONAMIDE DERIVATIVES AND SIMILAR COMPOUNDS AS CDK INHIBITORS FOR THE TREATMENT OF CANCER” (BeOne Medicines I GmbH, priority 2023, published 2026).
